Values joined by “and” are separate entries in the source; they are usually repeats but may differ in a detail not shown here. Equal entries are not always repeated. Toxic doses and inconclusive results are not listed. How the source made its calls: active means survival T/C of 150% or more; inactive means T/C below 125% in these data.
Test system: P388 leukemia ip, CD2F1 mice, survival T/C
Assay: NCI In Vivo Anticancer Drug Screen. Data for tumor model P388 Leukemia (intraperitoneal) in CD2F1 (CDF1) mice
Conditions: endpoint: median survival time, higher = longer survival
Outline: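 Mice carrying the transplanted tumor received test compound or vehicle. Survival was recorded in each group, and the value is the treated-group measurement divided by that of the vehicle-treated control group.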

[1] = dose: 25.0 mg/kg/injection, schedule: Q01DX009 (ip), vehicle: saline with Tween-80
[2] = dose: 50.0 mg/kg/injection, schedule: Q01DX009 (ip), vehicle: saline with Tween-80
[3] = dose: 100.0 mg/kg/injection, schedule: Q01DX009 (ip), vehicle: saline with Tween-80
[4] = dose: 200.0 mg/kg/injection, schedule: Q01DX009 (ip), vehicle: saline with Tween-80
[5] = dose: 6.25 mg/kg/injection, schedule: Q01DX009 (ip), vehicle: saline
[6] = dose: 12.5 mg/kg/injection, schedule: Q01DX009 (ip), vehicle: saline
[7] = dose: 25.0 mg/kg/injection, schedule: Q04DX003 (ip), vehicle: saline
[8] = dose: 50.0 mg/kg/injection, schedule: Q04DX003 (ip), vehicle: saline
[9] = dose: 50.0 mg/kg/injection, schedule: Q01DX009 (ip), vehicle: saline
[10] = dose: 25.0 mg/kg/injection, schedule: Q01DX009 (ip), vehicle: saline
[11] = dose: 12.5 mg/kg/injection, schedule: Q04DX003 (ip), vehicle: saline
[12] = dose: 50.0 mg/kg/injection, schedule: Q01DX005 (ip), vehicle: saline with Tween-80
[13] = dose: 100.0 mg/kg/injection, schedule: Q01DX005 (ip), vehicle: saline with Tween-80
[14] = dose: 60.0 mg/kg/injection, schedule: Q01DX005 (ip), vehicle: saline with Tween-80
[15] = dose: 120.0 mg/kg/injection, schedule: Q01DX005 (ip), vehicle: saline with Tween-80
[16] = dose: 240.0 mg/kg/injection, schedule: Q01DX005 (ip), vehicle: saline with Tween-80
[17] = dose: 50.0 mg/kg/injection, schedule: Q01DX009 (ip), vehicle: water

Measured: T/C

NC(=O)c1c(Cl)nc2sccn12
inactive: dose: 25.0 mg/kg/injection, schedule: Q01DX001 (ip), vehicle: saline with Tween-80 107 % of control | dose: 50.0 mg/kg/injection, schedule: Q01DX001 (ip), vehicle: saline with Tween-80 104 % of control | dose: 100.0 mg/kg/injection, schedule: Q01DX001 (ip), vehicle: saline with Tween-80 101 % of control and 112 % of control

c1ccc(N=NC2=NN(c3ccccc3)CCS2)cc1
inactive: [1] 102 % of control and 107 % of control | [2] 102 % of control and 116 % of control | [3] 101 % of control and 107 % of control | [4] 100 % of control and 110 % of control

C[N+](C)(C)CCC(=O)c1ccc(Cl)cc1
inactive: dose: 3.13 mg/kg/injection, schedule: Q01DX009 (ip), vehicle: saline 109 % of control | [5] 96 % of control | [6] 103 % of control

CCC1=[N+](C)c2ccccc2C1(C)C
inactive: [7] 100 % of control | [8] 99 % of control | dose: 100.0 mg/kg/injection, schedule: Q04DX003 (ip), vehicle: saline 107 % of control

O=C(O)CCc1ccccc1Br
inactive: dose: 100.0 mg/kg/injection, schedule: Q04DX002 (ip), vehicle: saline with Tween-80 101 % of control | dose: 200.0 mg/kg/injection, schedule: Q04DX002 (ip), vehicle: saline with Tween-80 95 % of control | dose: 400.0 mg/kg/injection, schedule: Q04DX002 (ip), vehicle: saline with Tween-80 100 % of control

CN1C(=O)C23SSC1(C)C(=O)N2c1ccccc1C3(C)C (stereo unspecified)
inactive: dose: 12.5 mg/kg/injection, schedule: Q01DX009 (ip), vehicle: suspension in saline 95 % of control | dose: 25.0 mg/kg/injection, schedule: Q01DX009 (ip), vehicle: suspension in saline 91 % of control | [9] 95 % of control

CC(CCCN)Nc1cc2c(c3cccnc13)OCCO2 (stereo unspecified)
inactive: [5] 90 % of control | [6] 86 % of control | [10] 100 % of control

COC(=O)/C=C/C(=O)NC(N)=O
inactive: dose: 6.25 mg/kg/injection, schedule: Q04DX003 (ip), vehicle: saline 100 % of control | [11] 109 % of control | [7] 100 % of control

O=C(O)c1ccccc1C(c1ccccc1)c1ccccc1
inactive: [1] 100 % of control | [2] 100 % of control | [3] 100 % of control

CC1OC(OC2C(O[C@H]3CC[C@@]4(C)C(=CC[C@H]5[C@@H]6C[C@@H]7O[C@]8(CC[C@H](C)CN8)[C@@H](C)[C@@H]7[C@@]6(C)CC[C@@H]54)C3)OC(CO)C(O)C2OC2OC(CO)C(O)C(O)C2O)C(O)C(O)C1O (stereo partly specified)
inactive: dose: 6.25 mg/kg/injection, schedule: Q01DX009 (ip), vehicle: saline with Tween-80 90 % of control | dose: 12.5 mg/kg/injection, schedule: Q01DX009 (ip), vehicle: saline with Tween-80 86 % of control | [1] 90 % of control

O=C1NC(O)c2cccc(Cl)c2O1 (stereo unspecified)
inactive: [12] 102 % of control | [13] 102 % of control | dose: 200.0 mg/kg/injection, schedule: Q01DX005 (ip), vehicle: saline with Tween-80 107 % of control

CCCCCCCCCCCCCCCCCc1ccccc1O
inactive: dose: 7.5 mg/kg/injection, schedule: Q01DX009 (ip), vehicle: saline with Tween-80 91 % of control | dose: 15.0 mg/kg/injection, schedule: Q01DX009 (ip), vehicle: saline with Tween-80 94 % of control | dose: 30.0 mg/kg/injection, schedule: Q01DX009 (ip), vehicle: saline with Tween-80 116 % of control

CCCCCCCCCc1cc(CN2CCCCC2)c(O)c(CN2CCCCC2)c1
inactive: [6] 112 % of control | [10] 108 % of control | [9] 102 % of control

CC1=CC(=O)C(=O)C2=C1OC1(C2)C(C)CCC2C3(C)CCC(O)C(C)(C)C3CCC21C (stereo unspecified)
inactive: dose: 25.0 mg/kg/injection, schedule: Q01DX005 (ip), vehicle: distilled water + Tween-80 95 % of control | dose: 25.0 mg/kg/injection, schedule: Q01DX005 (ip), vehicle: saline with Tween-80 95 % of control | dose: 50.0 mg/kg/injection, schedule: Q01DX005 (ip), vehicle: distilled water + Tween-80 115 % of control | [12] 111 % of control | [13] 109 % of control

CN=C1N[N+]2=CCCCC2S1 (stereo unspecified)
inactive: [11] 102 % of control | dose: 15.0 mg/kg/injection, schedule: Q01DX009 (ip), vehicle: saline 100 % of control and 101 % of control | [7] 104 % of control | dose: 30.0 mg/kg/injection, schedule: Q01DX009 (ip), vehicle: saline 92 % of control and 97 % of control | [8] 97 % of control | dose: 60.0 mg/kg/injection, schedule: Q01DX009 (ip), vehicle: saline 114 % of control and 96 % of control | dose: 120.0 mg/kg/injection, schedule: Q01DX009 (ip), vehicle: saline 120 % of control and 96 % of control

C[C@H]1C(=O)O[C@@H]2CCN3CC=C(COC(=O)[C@](C)(O)[C@@]1(C)O)[C@H]23
inactive: dose: 3.13 mg/kg/injection, schedule: Q01DX010 (ip), vehicle: saline 95 % of control | dose: 6.25 mg/kg/injection, schedule: Q01DX010 (ip), vehicle: saline 100 % of control | dose: 12.5 mg/kg/injection, schedule: Q01DX010 (ip), vehicle: saline 104 % of control | dose: 25.0 mg/kg/injection, schedule: Q01DX010 (ip), vehicle: saline 100 % of control

CC(=O)Nc1[nH]ncc1C#N
inactive: [14] 98 % of control | [15] 107 % of control | [16] 101 % of control

CC(C)S(=O)(=O)c1ccc(Cl)cc1[N+](=O)[O-]
inactive: dose: 50.0 mg/kg/injection, schedule: Q01DX009 (ip), vehicle: Klucel (hydroxypropylcellulose) (HPC) 100 % of control | dose: 100.0 mg/kg/injection, schedule: Q01DX009 (ip), vehicle: Klucel (hydroxypropylcellulose) (HPC) 99 % of control | dose: 200.0 mg/kg/injection, schedule: Q01DX009 (ip), vehicle: Klucel (hydroxypropylcellulose) (HPC) 99 % of control

CSc1nnc(C2CCC(=O)N2Cc2ccccc2)o1 (stereo unspecified)
inactive: dose: 60.0 mg/kg/injection, schedule: Q01DX005 (ip), vehicle: saline 105 % of control | dose: 120.0 mg/kg/injection, schedule: Q01DX005 (ip), vehicle: saline 102 % of control | dose: 240.0 mg/kg/injection, schedule: Q01DX005 (ip), vehicle: saline 104 % of control

COc1cc2c[n+](C)c3c4cc5c(cc4ccc3c2cc1OC)OCO5 (tested in a mixture with another compound)
inactive: dose: 3.13 mg/kg/injection, schedule: Q01DX009 (ip), vehicle: other 103 % of control | dose: 7.4 mg/kg/injection, schedule: Q01DX009 (ip), vehicle: other 116 % of control | [17] 99 % of control
active: dose: 6.25 mg/kg/injection, schedule: Q01DX009 (ip), vehicle: Klucel (hydroxypropylcellulose) (HPC) 159 % of control | dose: 6.25 mg/kg/injection, schedule: Q01DX009 (ip), vehicle: other 151 % of control | dose: 12.5 mg/kg/injection, schedule: Q01DX009 (ip), vehicle: other 156 % of control | dose: 25.0 mg/kg/injection, schedule: Q01DX009 (ip), vehicle: other 173 % of control

COc1ccc2c(c1)CSC(c1ccccc1)C2O (stereo unspecified)
inactive: [2] 98 % of control | [3] 93 % of control | [4] 99 % of control

CC(C)C1CCC(C)(Cl)C2CCC(C)(Cl)CC12 (stereo unspecified)
inactive: dose: 100.0 mg/kg/injection, schedule: Q04DX003 (ip), vehicle: other 90 % of control | dose: 200.0 mg/kg/injection, schedule: Q04DX003 (ip), vehicle: other 100 % of control | dose: 400.0 mg/kg/injection, schedule: Q04DX003 (ip), vehicle: other 100 % of control

O=S(=O)(Nc1ccccc1F)c1ccc(F)cc1
inactive: [14] 106 % of control | [15] 100 % of control | [16] 106 % of control

CN(C)C1CC2C=CC1C1C=CC21 (stereo unspecified)
inactive: dose: 3.13 mg/kg/injection, schedule: Q01DX009 (ip), vehicle: water 100 % of control | dose: 6.25 mg/kg/injection, schedule: Q01DX009 (ip), vehicle: water 99 % of control | dose: 12.5 mg/kg/injection, schedule: Q01DX009 (ip), vehicle: water 100 % of control | dose: 25.0 mg/kg/injection, schedule: Q01DX009 (ip), vehicle: water 99 % of control | [17] 98 % of control
